From patent US9186322B2, “Platinum aggregates and process for producing the same” (Insmed Incorporated, priority 2002, dated 2015)

Experiment: TEM analysis of particles
Type: physicochemical
Conditions: not complexed with a lipid
Method: The white to portion containing mostly light fraction was removed and the yellowish brown fraction on the bottom was used for TEM analysis. A small amount of sample (less than 10 microliters) was placed on the carbon coated grid. The grid was placed on the top of a piece of filter paper and spun an Eppendorf centrifuge for 1 minute at 500 RPM to remove excess water. Samples were air-dried for at least one hour before analysis. If centrifugation was done at too low a speed, water was not removed sufficiently enough, and the sample remained too thick, even after drying, tending to boil when exposed to high vacuum inside the TEM microscope. Centrifugation conditions were adjusted to be gentle enough to avoid damage to the grid or loss of the sample.
The cisplatin solution was briefly sonicated in a bath of room temperature water. At the first signs of cisplatin precipitation and cloudiness, a small volume was taken with a pipette and immediately placed on a carbon coated grid as described in the preceding paragraph.
TEM images were obtained on a Zeiss 910 Transmission Electron Microscope at the Princeton Imaging and Analysis Center, Princeton University, Princeton, N.J. An accelerating high voltage of 100 kV was used, and pictures were captured on a charged couple device (CCD) camera at magnifications of 2000 to 25,000×. […]

In the case of `N.N.[Cl][Pt][Cl]` [cisplatin, cis-diamine-dichloroplatinum (II)], the crystal length was 10-20 microns and the crystal width was “approximately 2 microns”.
